The values that follow are results of earlier work, collected in patent publication US7713351B2, “Method for crystallization of proteins using polysaccharides” (Macrocrystal Oy, priority 2004, dated 2010).

For the data set the following is noted: room temperature; CRC Handbook of Chemistry and Physics.

On to `OCC(O)CO` [glycerol], for which the Viscosity is 934 mPa s.
